From US20220056014A1, “PHENYLPYRROLIDINE COMPOUND AND USE THEREOF” (WUHAN HUMANWELL INNOVATIVE DRUG RESEARCH AND DEVELOPMENT …, priority 2018, published 2022) come the findings set out here.

The structures appear in SMILES notation. Read-outs that look alike come from different tables or passages of the source.

Series [1] has as its target T1, PDE4B (Homo sapiens, UniProt Q07343).
T1 construct: purchased Enzo Life Sciences BML-SE522-0020
Nature of the series: PDE4B enzyme activity assay (PDE-Glo Phosphodiesterase Assay Kit). The format is biochemical. Conditions: for IC50 (PDE4D)/IC50 (PDE4B): selectivity ratio. The essentials: (§1)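 Recombinant human PDE4B (1 ng/μl working solution) or PDE4D (4 ng/μl working solution) preincubated 5 min at RT with compound, then reacted 20 min with cAMP (2 μM in added solution). PDE-Glo termination/detection and Kinase-Glo steps followed; luminescence read and IC50 fitted.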

Series [2] concerns LPS-induced secretion of TNFα in human PBMCs. Nature of the series: LPS-induced secretion of TNFα in human PBMCs. The conditions noted are these: Homo sapiens, PBMC, 24 h, LPS 10 ng/ml. The format is cell-based. The essentials: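 PBMCs isolated by Lymphoprep density centrifugation were seeded at 5×10^4/well in RPMI1640 + 10% FBS and given compound, with 30 min pre-incubation, then stimulated with 10 ng/ml LPS (final). After 24 h, supernatant TNF-α was measured by ELISA kit.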

Series [3] relates to LPS-stimulated TNF-α release. Nature of the series: LPS-stimulated TNF-α release in mice. The conditions noted are these: Mus musculus, oral 50 mg/kg (positive control 100 mg/kg), 1 mg/kg LPS i.p. It is filed as in vivo, Balb/c mice. As to the method: 18 Balb/c mice (6 to 8 weeks) were randomly assigned to a blank group, a model group, and an administration group, 6 mice in each group. A vehicle (blank group, model group) or 50 mg/kg compound (administration group, where the dose for the positive control group was 100 mg/kg) was orally administrated. 30 min after the oral administration, PBS (blank group) or 1 mg/kg LPS (model group and administration group) was injected intraperitoneally. 90 min or 120 min after the intraperitoneal injection, blood was collected from the hearts of the mice, and still stood at 2-8° C. for 4 hours, and centrifuged at 5000 rpm for 10 min to collect the serum. The serum was stored at −80° C. for testing.
The serum TNF-α level was tested using a mouse TNF-α detection kit (Mouse TNFa ELISA kit: Biolegend, Cat: 430904). The inhibitory activity of the compounds against the TNF-α release was calculated based on the serum TNF-α level.
Inhibitory activity of compound %={1−(TNFα concentration of administration group−TNFα concentration of blank group)/(TNFα concentration of model group−TNFα concentration of blank group)}×100%.

The subject of series [4] is Mouse CIA arthritis model. The series can be described thus: Mouse CIA arthritis model test. The conditions noted are these: 30 mg/kg oral, twice a day for 21 days. It is filed as in vivo, DBA/1 mice. As for the experimental part: (1) Preparation of Type II Collagen/Complete Freund's Adjuvant
Preparation of acetic acid: 2N acetic acid was diluted to 100 mM, filtered with 0.22 μm filter membrane, and stored at 4° C.
Preparation of bovine type II collagen solution: bovine type II collagen (CII) was dissolved in 100 mM acetic acid solution and stored at 4° C. overnight. A final concentration of collagen was 8 mg/mL.
Preparation of emulsion: the CII solution stored overnight was mixed with an equal volume of complete Freund's adjuvant, and homogenized on ice by a high-speed homogenizer at 30,000 rpm for approximately 60 min, until the solution formed a stable emulsion.
After DBA/1 mice were anesthetized with isoflurane, 50 μl of prepared collagen emulsion (containing 200 micrograms of CII) was injected subcutaneously in the tail (2-3 cm from the base of the tail) for immunization. The day of the primary immunization was recorded as day 0, and the following days were recorded sequentially. On day 21, the same volume of collagen emulsion was injected into the tail in the same way. Mice in the normal group were not immunized.
On day 21, the mice that had been induced to have arthritis were randomly grouped according to their body weights, such that the average body weight of each group was consistent, and they were randomly divided into 6 treatment groups for administration, with 10 mice in each group.
G1 group included normal mice without being treated; G2 group was given a blank vehicle; G3 to G7 groups were administrated with the compound at a dose of 30 mg/kg, twice a day for 21 days. The volume of oral administration was 10 mL/kg.
After the enhanced immunization, the disease incidence of the mice was observed every day. When the mice began to develop symptoms (clinical symptoms of arthritis emerged), the symptoms were graded as 0 to 4 according to the different degrees of pathological changes (redness, joint deformation), where the highest score for each limb was 4, and the highest score for each animal was 16. The mice were graded at least three times a week.
The area under curve (AUC) of clinical scores of each group from day 21 to day 42 was calculated, and the inhibition rate % of the clinical score AUC of the administration group was calculated:
Inhibition rate %=1−(administration group AUC/blank vehicle group AUC)*100%
The experimental data are expressed as Mean±standard error (Mean±SEM), and the clinical scores were analyzed with One-way ANOVA, where p<0.05 was considered to be a significant difference.

The target of series [5] is T2, PDE4D (Homo sapiens, UniProt Q08499).
T2 construct: purchased Enzo Life Sciences BML-SE523-0020
T2 sequence (Q08499 whole entry): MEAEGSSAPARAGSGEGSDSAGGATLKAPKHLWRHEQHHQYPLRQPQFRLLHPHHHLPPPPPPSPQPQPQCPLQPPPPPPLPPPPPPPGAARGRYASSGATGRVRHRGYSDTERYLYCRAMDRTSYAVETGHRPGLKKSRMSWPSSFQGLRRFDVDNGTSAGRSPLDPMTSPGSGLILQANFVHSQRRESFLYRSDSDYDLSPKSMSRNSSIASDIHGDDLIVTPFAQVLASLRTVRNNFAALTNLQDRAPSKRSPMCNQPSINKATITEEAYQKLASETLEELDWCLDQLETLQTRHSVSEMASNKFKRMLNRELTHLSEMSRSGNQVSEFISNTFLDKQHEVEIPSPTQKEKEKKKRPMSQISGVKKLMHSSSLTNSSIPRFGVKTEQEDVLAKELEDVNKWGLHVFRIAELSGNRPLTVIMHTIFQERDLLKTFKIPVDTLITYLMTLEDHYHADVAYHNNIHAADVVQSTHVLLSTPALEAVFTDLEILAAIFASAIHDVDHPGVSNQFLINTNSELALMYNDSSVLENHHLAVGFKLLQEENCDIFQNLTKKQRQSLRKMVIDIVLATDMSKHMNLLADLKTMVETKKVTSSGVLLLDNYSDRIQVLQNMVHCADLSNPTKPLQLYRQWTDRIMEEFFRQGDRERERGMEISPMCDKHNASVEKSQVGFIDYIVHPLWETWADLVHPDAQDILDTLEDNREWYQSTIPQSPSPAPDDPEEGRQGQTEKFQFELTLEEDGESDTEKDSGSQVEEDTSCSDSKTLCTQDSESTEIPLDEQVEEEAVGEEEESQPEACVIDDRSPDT
Nature of the series: PDE4D enzyme activity assay (PDE-Glo Phosphodiesterase Assay Kit). It is filed as biochemical. Summed up: as §1

A short description of series [6]: Pharmacokinetic test in canine. It is filed as in vivo, beagle dogs. Conditions: male, beagle, dog, plasma, oral gavage 5 mg/kg. As for the experimental part: (§2) In the rat pharmacokinetic test, 3 male SD rats (180-240 g) were fasted overnight, and orally administered with 10 mg/kg of compound to be tested. Blood was collected before the administration, and 15 min, 30 min, 1 h, 2 h, 4 h, 8 h, and 24 h hours after the administration. The blood sample was centrifuged at 8000 rpm for 6 min at 4° C., and the plasma was collected and stored at −20° C. The plasma collected at each time point was added and mixed with 3-5 times the amount of acetonitrile solution containing an internal standard, vortexed for 1 min, centrifuged at 13,000 rpm for 10 min at 4° C. The supernatant was taken and mixed with 3 times the amount of water, and an appropriate amount of the mixture was taken for LC-MS/MS analysis. The main pharmacokinetic parameters were analyzed with WinNonlin 7.0 software non-compartmental model.
(§3) In the mouse pharmacokinetic test, 9 male CD-1 mice (20-25 g) were fasted overnight, and orally administered with 10 mg/kg of the compound to be tested. Bloods of 3 mice were collected at each time point, and bloods of 9 mice were alternately collected in total. In the pharmacokinetic test in canine, 3 male beagle dogs (8-10 kg) were fasted overnight, and orally administered with 5 mg/kg of the compound to be test. In the pharmacokinetic test of cynomolgus monkeys, 3 male cynomolgus monkeys (4 to 6.5 kg) were fasted overnight, and orally administered 20 mg/kg of the compound to be test. The remaining processes are the same as those of the rat pharmacokinetic test.

Series [7] in a line: Rat pharmacokinetic test. It is filed as in vivo, SD rats. The conditions noted are these: male, Sprague-Dawley (SD), plasma, oral gavage 10 mg/kg. As for the experimental part: as §2
Series [8] is described as follows: Mouse pharmacokinetic test. It is filed as in vivo, CD-1 mice. The conditions noted are these: male, CD-1, plasma, oral gavage 10 mg/kg. As to the method:
as §2, §3

Where [9] appears, read: 2 h, blood 120 min after LPS, read-out: Inhibition rate (%) of LPS-stimulated TNF-α release, 120 min.

T1 sequence (Q07343 whole entry): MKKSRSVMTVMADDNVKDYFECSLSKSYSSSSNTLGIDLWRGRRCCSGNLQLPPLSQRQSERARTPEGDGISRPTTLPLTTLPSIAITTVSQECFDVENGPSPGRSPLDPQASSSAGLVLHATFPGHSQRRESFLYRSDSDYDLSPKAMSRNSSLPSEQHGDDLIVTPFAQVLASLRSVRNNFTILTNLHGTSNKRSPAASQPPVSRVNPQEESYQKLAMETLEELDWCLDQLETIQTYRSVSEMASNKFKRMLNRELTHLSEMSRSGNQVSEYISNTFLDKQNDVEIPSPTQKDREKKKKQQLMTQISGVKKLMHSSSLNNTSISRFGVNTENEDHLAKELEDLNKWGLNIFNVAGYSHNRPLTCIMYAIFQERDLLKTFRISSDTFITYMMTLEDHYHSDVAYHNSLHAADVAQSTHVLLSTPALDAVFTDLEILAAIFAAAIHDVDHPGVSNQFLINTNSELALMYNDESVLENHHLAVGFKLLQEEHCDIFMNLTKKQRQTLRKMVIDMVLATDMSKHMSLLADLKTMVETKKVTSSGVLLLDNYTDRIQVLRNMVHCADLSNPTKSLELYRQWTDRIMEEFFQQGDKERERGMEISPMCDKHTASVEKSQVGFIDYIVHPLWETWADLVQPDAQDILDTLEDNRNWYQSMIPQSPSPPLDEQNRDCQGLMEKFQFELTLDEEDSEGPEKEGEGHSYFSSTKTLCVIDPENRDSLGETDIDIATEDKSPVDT

Consider `CCc1ccc(N2CC(Oc3cc([C@@H]4CN(C(=O)[C@@H](O)CO)C[C@@]4(C)[C@@H](C)O)ccc3OC)C2)nc1` [Compound 031, (S)-1-((3S,4S)-4-(3-((1-(5-ethylpyridin-2-yl)azetidin-3-yl)oxy)-4-methoxyphenyl)-3-((R)-1-hydroxyethyl)-3-methylpyrrolidin-1-yl)-2,3-dihydroxypropan-1-one], for which the IC50 in series [1] amounted to 1.87 nM; in series [2] it was 0.7 nM; in series [5] it was 2.56 nM. Moreover, the “IC50 (PDE4D)/IC50 (PDE4B)” value in series [1] was 1.37. For the same molecule, the inhibition in vivo at 50 mg/kg in series [3] (1.5 h, blood 90 min after LPS, read-out: Inhibition rate (%) of LPS-stimulated TNF-α release, 90 min) was 64.8%; in series [3] (setting [9]), 78.3%. Further, the “inhibition rate based on clinical score AUC” value in series [4] (AUC day 21 to day 42) was determined as 85.0%. Besides, the “Clinical score (endpoint)” value in series [4] (day 42, highest score 16) is 2.1.

Take `COc1ccc([C@@H]2CN(C(=O)[C@@H](O)CO)C[C@@]2(C)[C@@H](C)O)cc1OC1CN(c2cc(Cl)c(C)cn2)C1` [Compound 002, (S)-1-((3S,4S)-4-(3-((1-(4-chloro-5-methylpyridin-2-yl)azetidin-3-yl)oxy)-4-methoxyphenyl)-3-((R)-1-hydroxyethyl)-3-methylpyrrolidin-1-yl)-2,3-dihydroxypropan-1-one]: the AUC(0-t) in series [6] worked out at 534 ng·h/mL; in series [7] it was 103 ng·h/mL; in series [8], 386 ng·h/mL. The Cmax came to 198 ng/mL in series [6], 41.6 ng/mL in series [7] and 355 ng/mL in series [8]. Also, the Tmax is 1 h in series [6], 19.8 min in series [7] and 15 min in series [8]. Also, the values for the IC50 in series [1], in series [2] and in series [5] were 0.43 nM, 0.56 nM and 0.16 nM, respectively. Further, in series [1], the “IC50 (PDE4D)/IC50 (PDE4B)” value amounted to 0.37. Further, the inhibition in vivo at 50 mg/kg in series [3] (setting [9]) was 66.2%.
